From patent US20220195066A1, “ANTI-CEA IMMUNOCONJUGATES, AND USES THEREOF” (BOLT BIOTHERAPEUTICS, INC., priority 2020, published 2022)
pEC50: −log10 of the molar value.

Assays:
[1] = molecular target: T1, human TLR8 (Homo sapiens, UniProt Q9NR97); assay: HEK Reporter Assay, HEK293 NFKB reporter cells expressing human TLR8; type: cell-based; details: read-out: HEK293 hTLR8 EC50
T1 construct: host or cells: HEK293 NF-kB reporter cells
T1 sequence (Q9NR97 27-1041): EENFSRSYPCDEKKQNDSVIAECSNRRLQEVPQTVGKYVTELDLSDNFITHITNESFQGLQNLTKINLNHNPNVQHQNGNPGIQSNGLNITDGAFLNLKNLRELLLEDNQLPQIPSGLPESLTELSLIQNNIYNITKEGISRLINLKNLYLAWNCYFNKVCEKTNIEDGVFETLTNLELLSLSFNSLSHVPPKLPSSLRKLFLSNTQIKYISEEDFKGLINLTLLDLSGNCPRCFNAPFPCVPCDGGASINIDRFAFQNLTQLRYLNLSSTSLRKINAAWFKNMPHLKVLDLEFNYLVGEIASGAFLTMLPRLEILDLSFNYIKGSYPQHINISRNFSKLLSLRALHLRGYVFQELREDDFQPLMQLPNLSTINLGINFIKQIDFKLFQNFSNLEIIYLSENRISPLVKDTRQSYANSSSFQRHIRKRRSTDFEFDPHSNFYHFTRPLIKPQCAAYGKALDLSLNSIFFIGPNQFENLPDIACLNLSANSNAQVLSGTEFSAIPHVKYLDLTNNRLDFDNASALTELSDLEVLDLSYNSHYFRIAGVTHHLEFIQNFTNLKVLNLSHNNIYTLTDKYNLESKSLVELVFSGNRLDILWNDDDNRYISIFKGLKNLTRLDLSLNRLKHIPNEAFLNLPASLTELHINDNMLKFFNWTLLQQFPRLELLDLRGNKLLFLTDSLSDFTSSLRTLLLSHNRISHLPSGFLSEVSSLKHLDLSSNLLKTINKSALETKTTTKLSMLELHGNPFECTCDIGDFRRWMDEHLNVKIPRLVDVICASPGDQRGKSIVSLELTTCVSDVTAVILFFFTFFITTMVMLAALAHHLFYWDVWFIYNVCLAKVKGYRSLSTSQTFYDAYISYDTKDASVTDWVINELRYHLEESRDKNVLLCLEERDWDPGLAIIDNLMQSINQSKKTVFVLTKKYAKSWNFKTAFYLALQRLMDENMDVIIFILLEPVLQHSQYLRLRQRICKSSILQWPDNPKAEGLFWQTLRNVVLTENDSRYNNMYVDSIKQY
Method: (§1) Each compound was synthesized, purified, and characterized by mass spectrometry and shown to have the mass indicated. Additional experimental procedures are found in the Examples. Activity against Human Embryonic Kidney (HEK) 293 NFKB reporter cells expressing human TLR7 or human TLR8 was measured according to Example 202.
(§2) Human Embryonic Kidney (HEK293) reporter cells expressing human TLR7 or human TLR8 (InvivoGen, San Diego Calif.), were used with vendor protocols for cellular propagation and experimentation. Briefly, cells were grown to 80-85% confluence at 5% CO2 in DMEM supplemented with 10% FBS, ZEOCIN™, and Blasticidin. Cells were then seeded in 96-well flat plates at 4×10^4 cells/well with substrate containing HEK detection medium and immunostimulatory molecules.

[2] = molecular target: T2, human TLR7 (Homo sapiens, UniProt Q9NYK1); assay: HEK Reporter Assay, HEK293 NFKB reporter cells expressing human TLR7; type: cell-based; details: read-out: HEK293 hTLR7 EC50
T2 construct: host or cells: HEK293 NF-kB reporter cells
T2 sequence (Q9NYK1 27-1049): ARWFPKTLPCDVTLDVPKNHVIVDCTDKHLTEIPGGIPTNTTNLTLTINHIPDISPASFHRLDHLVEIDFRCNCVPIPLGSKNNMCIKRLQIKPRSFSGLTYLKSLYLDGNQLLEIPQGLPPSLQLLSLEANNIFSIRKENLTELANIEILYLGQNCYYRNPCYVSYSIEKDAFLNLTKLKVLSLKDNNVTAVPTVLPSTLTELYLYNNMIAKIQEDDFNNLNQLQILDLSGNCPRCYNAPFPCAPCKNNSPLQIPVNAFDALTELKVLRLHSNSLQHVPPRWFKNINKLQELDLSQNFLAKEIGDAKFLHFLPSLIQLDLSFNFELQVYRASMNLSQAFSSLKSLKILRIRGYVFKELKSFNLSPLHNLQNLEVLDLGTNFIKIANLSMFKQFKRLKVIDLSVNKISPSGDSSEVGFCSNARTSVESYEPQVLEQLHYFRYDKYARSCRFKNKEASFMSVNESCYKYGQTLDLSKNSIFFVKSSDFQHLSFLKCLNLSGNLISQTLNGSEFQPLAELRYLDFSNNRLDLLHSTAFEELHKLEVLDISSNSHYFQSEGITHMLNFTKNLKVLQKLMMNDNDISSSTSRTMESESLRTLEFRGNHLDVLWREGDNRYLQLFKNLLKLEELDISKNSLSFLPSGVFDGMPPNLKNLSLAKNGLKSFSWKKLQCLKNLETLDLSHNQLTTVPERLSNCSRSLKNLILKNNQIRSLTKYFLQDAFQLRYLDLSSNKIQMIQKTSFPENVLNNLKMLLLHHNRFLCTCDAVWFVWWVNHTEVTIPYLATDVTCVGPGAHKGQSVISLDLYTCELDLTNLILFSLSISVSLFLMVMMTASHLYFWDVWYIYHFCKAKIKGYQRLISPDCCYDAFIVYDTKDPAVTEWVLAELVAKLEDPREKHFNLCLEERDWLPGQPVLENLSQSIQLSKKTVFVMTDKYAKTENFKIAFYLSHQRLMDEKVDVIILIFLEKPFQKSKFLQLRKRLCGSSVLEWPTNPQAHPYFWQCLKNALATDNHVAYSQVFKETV
Method: as §1, §2

SMILES	pEC50 [1]	pEC50 [2]
CCCN(OCCNC(=O)OC(C)C)C(=O)C1=Cc2ccc(-c3cncc(S(=O)(=O)N4CC(CN)C4)c3)cc2N=C(N)C1 [HxBz-35]	6.76	6.16
CCCN(OCC)C(=O)C1=Cc2ccc(-c3ccc(CN)nc3)cc2N=C(N)C1 [HxBz-36, 2-amino-8-[6-(aminomethyl)-3-pyridyl]-N-ethoxy-N-propyl-3H-1-benzazepine-4-carboxamide]	7.27	6.36
CCCN(CCCNC(=O)OC1CCC1)C(=O)C1=Cc2ccc(-c3ccc(CN)nc3)cc2N=C(N)C1 [HxBz-38]	6.82	7.25
CCCN(OCC)C(=O)C1=Cc2ccc(-c3cncc(CN)c3)cc2N=C(N)C1 [HxBz-39, 2-amino-8-(5-(aminomethyl)pyridin-3-yl)-N-ethoxy-N-propyl-3H-benzo[b]azepine-4-carboxamide]	7.19	5.75
CCCN(CCCNC(=O)OC1CCC1)C(=O)C1=Cc2ccc(-c3cncc(CN)c3)cc2N=C(N)C1 [HxBz-40]	6.12	6.45
CCCN(OCc1ccn[nH]1)C(=O)C1=Cc2ccc(-c3cnc(CN)nc3)cc2N=C(N)C1 [HxBz-41, 2-amino-8-[2-(aminomethyl)pyrimidin-5-yl]-N-propyl-N-(1H-pyrazol-5-ylmethoxy)-3H-1-benzazepine-4-carboxamide]	6.89	5.41
CCCN(CCCOC(=O)NC1CCC1)C(=O)C1=Cc2ccc(-c3cnc(CN)nc3)cc2N=C(N)C1 [HxBz-45, 3-[[2-amino-8-[2-(aminomethyl)pyrimidin-5-yl]-3H-1-benzazepine-4-carbonyl]-propyl-amino]propyl N-cyclobutylcarbamate]	6.49	6.08
CCCN(OCCNC(=O)OC1CCC1)C(=O)C1=Cc2ccc(-c3ccc(CN)nc3)cc2N=C(N)C1 [HxBz-47]	7.92	7.46
